Measured values taken from the kinase profiling compilation of Christmann-Franck et al. (2016).

Columns and labels:
Experiment in all cases: radiometric filter-binding kinase assay, Kinase HotSpot
Conditions in all cases: compound 0.5 µM; ATP 10 µM
SGK2 (human) = SGK2 (human) (UniProt Q9HBY8)
ABL1 (human) = ABL1 (human) (UniProt P00519)
PAK4 (human) = PAK4 (human) (UniProt O96013)
PAK7 (human) = PAK7 (human) (UniProt Q9P286)
DAPK3 (human) = DAPK3 (human) (UniProt O43293)
MET (human) = MET (human) (UniProt P08581)
CAMK2D (human) = CAMK2D (human) (UniProt Q13557)
PRKX (human) = PRKX (human) (UniProt P51817)
DYRK1A (human) = DYRK1A (human) (UniProt Q13627)
CDK9 CCNK (human) = CDK9 CCNK (human) (UniProt O75909+P50750)
CSNK1A1 (human) = CSNK1A1 (human) (UniProt P48729)
STK33 (human) = STK33 (human) (UniProt Q9BYT3)
GRK5 (human) = GRK5 (human) (UniProt P34947)
SLK (human) = SLK (human) (UniProt Q9H2G2)
ACVR1B (human) = ACVR1B (human) (UniProt P36896)
PRKD3 (human) = PRKD3 (human) (UniProt O94806)
PHKG1 (human) = PHKG1 (human) (UniProt Q16816)
CDK5 CDK5R1 p35 (human) = CDK5 CDK5R1 p35 (human) (UniProt Q00535+Q15078)
JAK2 JH1 JH2 (human) = JAK2 JH1 JH2 (human) (UniProt O60674)
FLT1 (human) = FLT1 (human) (UniProt P17948)
PRKCD (human) = PRKCD (human) (UniProt Q05655)
PKN2 (human) = PKN2 (human) (UniProt Q16513)
DCLK2 (human) = DCLK2 (human) (UniProt Q8N568)
PRKCE (human) = PRKCE (human) (UniProt Q02156)
CSNK2A1 (human) = CSNK2A1 (human) (UniProt P68400)
RPS6KB1 (human) = RPS6KB1 (human) (UniProt P23443)
ULK2 (human) = ULK2 (human) (UniProt Q8IYT8)
CLK2 (human) = CLK2 (human) (UniProt P49760)
HIPK3 (human) = HIPK3 (human) (UniProt Q9H422)
STK11 (human) = STK11 (human) (UniProt Q15831)
CSNK1E (human) = CSNK1E (human) (UniProt P49674)
STK17A (human) = STK17A (human) (UniProt Q9UEE5)
FER (human) = FER (human) (UniProt P16591)
IKBKE (human) = IKBKE (human) (UniProt Q14164)
DSTYK (human) = DSTYK (human) (UniProt Q6XUX3)
MAPK8 (human) = MAPK8 (human) (UniProt P45983)
CDK4 CCND3 (human) = CDK4 CCND3 (human) (UniProt P30281+P11802)
AKT3 (human) = AKT3 (human) (UniProt Q9Y243)
MAP3K14 (human) = MAP3K14 (human) (UniProt Q99558)
IKBKB (human) = IKBKB (human) (UniProt O14920)
PKN1 (human) = PKN1 (human) (UniProt Q16512)
PRKD1 (human) = PRKD1 (human) (UniProt Q15139)

Sequence of JAK2 JH1 JH2 (human) (O60674 whole entry, looked up): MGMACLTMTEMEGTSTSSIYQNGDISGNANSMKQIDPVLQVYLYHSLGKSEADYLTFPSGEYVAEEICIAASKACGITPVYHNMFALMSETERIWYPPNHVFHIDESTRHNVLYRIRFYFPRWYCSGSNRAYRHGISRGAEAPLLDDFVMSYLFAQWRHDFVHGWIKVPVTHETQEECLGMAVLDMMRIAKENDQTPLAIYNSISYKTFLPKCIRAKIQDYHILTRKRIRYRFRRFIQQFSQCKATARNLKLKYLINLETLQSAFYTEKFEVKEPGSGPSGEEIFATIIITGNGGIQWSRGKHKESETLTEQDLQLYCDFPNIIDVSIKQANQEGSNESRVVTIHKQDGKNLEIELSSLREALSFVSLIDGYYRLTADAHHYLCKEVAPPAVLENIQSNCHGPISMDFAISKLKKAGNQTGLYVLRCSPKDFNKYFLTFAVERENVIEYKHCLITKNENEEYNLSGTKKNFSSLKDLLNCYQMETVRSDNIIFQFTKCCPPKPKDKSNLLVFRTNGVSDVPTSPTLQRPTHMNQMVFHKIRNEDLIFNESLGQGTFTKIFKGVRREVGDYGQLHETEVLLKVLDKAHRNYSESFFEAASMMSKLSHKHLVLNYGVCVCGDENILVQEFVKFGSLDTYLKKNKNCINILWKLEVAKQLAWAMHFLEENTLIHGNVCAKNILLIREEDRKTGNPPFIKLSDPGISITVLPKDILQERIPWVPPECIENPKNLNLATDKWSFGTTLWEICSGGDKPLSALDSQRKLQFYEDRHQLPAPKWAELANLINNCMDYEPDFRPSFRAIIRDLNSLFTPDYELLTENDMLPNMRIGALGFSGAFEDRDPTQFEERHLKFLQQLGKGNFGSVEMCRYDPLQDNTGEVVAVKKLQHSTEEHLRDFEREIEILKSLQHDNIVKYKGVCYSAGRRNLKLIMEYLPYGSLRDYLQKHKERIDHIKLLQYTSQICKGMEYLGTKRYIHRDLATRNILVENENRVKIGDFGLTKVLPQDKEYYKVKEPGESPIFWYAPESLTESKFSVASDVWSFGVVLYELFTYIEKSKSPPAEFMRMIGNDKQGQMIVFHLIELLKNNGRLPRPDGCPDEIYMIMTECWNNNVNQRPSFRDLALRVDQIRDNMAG
Sequence of ACVR1B (human) (P36896 whole entry, looked up): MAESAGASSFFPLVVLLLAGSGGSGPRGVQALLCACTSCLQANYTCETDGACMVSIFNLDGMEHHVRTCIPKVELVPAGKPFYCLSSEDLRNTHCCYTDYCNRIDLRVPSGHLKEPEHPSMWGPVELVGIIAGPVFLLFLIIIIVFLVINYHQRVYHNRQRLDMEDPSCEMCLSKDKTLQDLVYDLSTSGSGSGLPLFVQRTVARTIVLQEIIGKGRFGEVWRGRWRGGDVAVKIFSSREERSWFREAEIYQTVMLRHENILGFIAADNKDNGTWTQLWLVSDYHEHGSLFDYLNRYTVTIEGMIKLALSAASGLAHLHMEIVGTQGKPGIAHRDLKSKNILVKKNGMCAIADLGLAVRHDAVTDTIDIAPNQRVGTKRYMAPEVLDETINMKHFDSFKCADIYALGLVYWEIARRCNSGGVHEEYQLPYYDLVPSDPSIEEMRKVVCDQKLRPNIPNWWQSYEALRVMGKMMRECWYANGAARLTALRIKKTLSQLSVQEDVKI
Sequence of CSNK1E (human) (P49674 whole entry, looked up): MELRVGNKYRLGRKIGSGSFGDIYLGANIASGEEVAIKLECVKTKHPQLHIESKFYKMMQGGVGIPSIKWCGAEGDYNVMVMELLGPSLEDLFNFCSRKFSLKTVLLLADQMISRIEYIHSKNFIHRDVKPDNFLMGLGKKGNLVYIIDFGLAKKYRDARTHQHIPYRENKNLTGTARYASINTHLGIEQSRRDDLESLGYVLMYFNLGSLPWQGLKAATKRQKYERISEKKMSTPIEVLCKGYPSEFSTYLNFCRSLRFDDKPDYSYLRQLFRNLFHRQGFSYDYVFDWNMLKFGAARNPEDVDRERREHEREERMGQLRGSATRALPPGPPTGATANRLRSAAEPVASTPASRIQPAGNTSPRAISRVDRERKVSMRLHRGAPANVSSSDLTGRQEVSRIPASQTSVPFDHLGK
Sequence of IKBKE (human) (Q14164 whole entry, looked up): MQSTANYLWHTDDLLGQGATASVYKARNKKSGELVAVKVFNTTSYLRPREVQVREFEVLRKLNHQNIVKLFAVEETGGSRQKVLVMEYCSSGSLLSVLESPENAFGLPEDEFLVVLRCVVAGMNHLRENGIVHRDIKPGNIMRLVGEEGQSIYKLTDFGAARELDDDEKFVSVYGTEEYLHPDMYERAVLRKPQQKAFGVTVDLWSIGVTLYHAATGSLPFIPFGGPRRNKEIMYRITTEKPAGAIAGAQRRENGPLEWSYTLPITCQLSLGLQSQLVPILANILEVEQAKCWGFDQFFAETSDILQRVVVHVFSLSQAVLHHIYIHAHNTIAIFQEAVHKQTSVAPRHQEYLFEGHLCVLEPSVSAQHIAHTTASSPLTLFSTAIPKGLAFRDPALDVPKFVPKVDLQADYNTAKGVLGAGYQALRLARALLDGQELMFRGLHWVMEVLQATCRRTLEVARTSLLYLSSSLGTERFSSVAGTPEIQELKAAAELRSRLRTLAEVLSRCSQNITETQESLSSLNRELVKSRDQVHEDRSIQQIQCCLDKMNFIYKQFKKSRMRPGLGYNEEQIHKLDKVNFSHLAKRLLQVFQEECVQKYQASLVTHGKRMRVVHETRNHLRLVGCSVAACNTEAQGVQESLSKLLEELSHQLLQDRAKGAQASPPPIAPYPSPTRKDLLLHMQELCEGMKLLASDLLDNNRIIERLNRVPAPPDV
Sequence of PRKD3 (human) (O94806 whole entry, looked up): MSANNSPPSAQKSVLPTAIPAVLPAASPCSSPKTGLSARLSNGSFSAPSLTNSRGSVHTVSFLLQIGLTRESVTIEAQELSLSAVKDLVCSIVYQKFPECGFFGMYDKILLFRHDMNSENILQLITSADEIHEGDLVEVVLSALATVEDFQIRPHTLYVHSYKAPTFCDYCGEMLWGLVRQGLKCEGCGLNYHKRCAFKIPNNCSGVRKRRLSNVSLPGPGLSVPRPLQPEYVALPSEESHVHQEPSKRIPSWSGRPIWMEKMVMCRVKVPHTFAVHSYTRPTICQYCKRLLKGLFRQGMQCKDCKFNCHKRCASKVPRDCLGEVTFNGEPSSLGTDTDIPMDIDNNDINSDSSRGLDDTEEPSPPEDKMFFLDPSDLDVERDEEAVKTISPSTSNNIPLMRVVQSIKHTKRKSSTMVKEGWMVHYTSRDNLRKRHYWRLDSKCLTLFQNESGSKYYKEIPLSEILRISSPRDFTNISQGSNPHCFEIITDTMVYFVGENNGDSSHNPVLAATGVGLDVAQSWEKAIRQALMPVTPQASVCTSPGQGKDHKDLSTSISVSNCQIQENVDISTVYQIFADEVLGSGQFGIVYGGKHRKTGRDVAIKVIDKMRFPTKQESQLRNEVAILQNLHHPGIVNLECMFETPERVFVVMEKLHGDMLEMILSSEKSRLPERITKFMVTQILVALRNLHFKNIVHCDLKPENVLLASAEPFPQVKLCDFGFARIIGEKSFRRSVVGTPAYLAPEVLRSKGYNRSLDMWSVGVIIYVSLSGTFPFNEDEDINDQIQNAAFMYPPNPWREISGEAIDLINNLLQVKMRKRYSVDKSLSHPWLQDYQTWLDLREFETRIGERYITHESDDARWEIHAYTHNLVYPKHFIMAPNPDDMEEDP
Sequence of AKT3 (human) (Q9Y243 whole entry, looked up): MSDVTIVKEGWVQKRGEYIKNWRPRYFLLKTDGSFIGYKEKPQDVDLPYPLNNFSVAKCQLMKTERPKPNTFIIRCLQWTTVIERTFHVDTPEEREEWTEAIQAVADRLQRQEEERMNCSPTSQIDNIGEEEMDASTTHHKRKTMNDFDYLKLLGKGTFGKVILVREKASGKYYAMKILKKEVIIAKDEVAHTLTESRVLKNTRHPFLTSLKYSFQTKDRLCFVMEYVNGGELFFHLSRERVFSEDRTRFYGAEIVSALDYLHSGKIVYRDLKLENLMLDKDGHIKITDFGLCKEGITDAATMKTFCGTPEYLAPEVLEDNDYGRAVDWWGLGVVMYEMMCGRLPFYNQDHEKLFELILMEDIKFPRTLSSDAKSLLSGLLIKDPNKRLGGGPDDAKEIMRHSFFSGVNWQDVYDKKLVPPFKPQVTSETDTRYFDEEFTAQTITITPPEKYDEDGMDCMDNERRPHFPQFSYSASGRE
Sequence of STK17A (human) (Q9UEE5 whole entry, looked up): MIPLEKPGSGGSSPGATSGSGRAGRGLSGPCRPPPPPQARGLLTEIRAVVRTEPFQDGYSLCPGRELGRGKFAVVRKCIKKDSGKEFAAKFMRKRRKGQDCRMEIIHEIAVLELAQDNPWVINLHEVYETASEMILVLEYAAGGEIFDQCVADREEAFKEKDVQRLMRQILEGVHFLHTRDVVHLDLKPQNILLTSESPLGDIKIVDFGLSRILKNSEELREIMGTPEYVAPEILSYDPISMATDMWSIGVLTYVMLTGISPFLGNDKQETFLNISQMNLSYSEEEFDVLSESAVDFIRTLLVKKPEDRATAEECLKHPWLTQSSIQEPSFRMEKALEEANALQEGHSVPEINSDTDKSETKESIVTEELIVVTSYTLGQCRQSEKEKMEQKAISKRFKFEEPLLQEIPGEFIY
Sequence of STK11 (human) (Q15831 whole entry, looked up): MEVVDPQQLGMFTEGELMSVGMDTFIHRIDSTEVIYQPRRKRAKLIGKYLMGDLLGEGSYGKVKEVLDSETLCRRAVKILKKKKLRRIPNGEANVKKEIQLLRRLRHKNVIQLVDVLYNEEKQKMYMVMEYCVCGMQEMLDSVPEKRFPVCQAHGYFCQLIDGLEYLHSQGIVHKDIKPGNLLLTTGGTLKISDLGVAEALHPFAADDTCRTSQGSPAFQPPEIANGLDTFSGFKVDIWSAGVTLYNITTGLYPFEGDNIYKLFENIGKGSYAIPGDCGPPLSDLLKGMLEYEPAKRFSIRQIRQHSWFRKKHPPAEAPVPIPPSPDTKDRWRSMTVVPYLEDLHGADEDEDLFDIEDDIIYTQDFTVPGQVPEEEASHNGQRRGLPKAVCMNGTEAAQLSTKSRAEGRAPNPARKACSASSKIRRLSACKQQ

`Cn1c2ccccc2c2c3c(c4c5ccccc5n(CCC#N)c4c21)CNC3=O` gave a residual activity (SGK2 (human)) of 94%, a residual activity (ABL1 (human)) of 84.6% and a residual activity (PAK4 (human)) of 44%. It also gave a residual activity (PAK7 (human)) of 37.1%, a residual activity (DAPK3 (human)) of 93.6% and a residual activity (MET (human)) of 100%. The residual activity (CAMK2D (human)) was 20.3%, the residual activity (PRKX (human)) was 60.1% and the residual activity (DYRK1A (human)) was 46.3%. The residual activity (CDK9 CCNK (human)) was 55.2%, the residual activity (CSNK1A1 (human)) was 75.4% and the residual activity (STK33 (human)) was 26.5%. For the same compound, the residual activity (GRK5 (human)) was 89.1%, the residual activity (SLK (human)) was 34.1% and the residual activity (ACVR1B (human)) was 115%. It also gave a residual activity (PRKD3 (human)) of 7.3%, a residual activity (PHKG1 (human)) of 1.76% and a residual activity (CDK5 CDK5R1 p35 (human)) of 8.52%. For the same compound, the residual activity (JAK2 JH1 JH2 (human)) was 5.58%, the residual activity (FLT1 (human)) was 63.6% and the residual activity (PRKCD (human)) was 41.9%. It also gave a residual activity (PKN2 (human)) of 67.7%, a residual activity (DCLK2 (human)) of 84.7% and a residual activity (PRKCE (human)) of 58.5%. The residual activity (CSNK2A1 (human)) was 73.1%, the residual activity (RPS6KB1 (human)) was 6.71% and the residual activity (ULK2 (human)) was 92.9%. The residual activity (CLK2 (human)) was 88.7%, the residual activity (HIPK3 (human)) was 29.8% and the residual activity (STK11 (human)) was 31.8%. It also gave a residual activity (CSNK1E (human)) of 80.4%, a residual activity (STK17A (human)) of 85.3% and a residual activity (FER (human)) of 5.9%. It also gave a residual activity (IKBKE (human)) of 69.4%, a residual activity (DSTYK (human)) of 9.91% and a residual activity (MAPK8 (human)) of 78.7%. It also gave a residual activity (CDK4 CCND3 (human)) of 44.5%, a residual activity (AKT3 (human)) of 85.3% and a residual activity (MAP3K14 (human)) of 84.1%. The residual activity (IKBKB (human)) was 90.4%, the residual activity (PKN1 (human)) was 10.3% and the residual activity (PRKD1 (human)) was 17.3%.
`Fc1ccc(-c2nc3n(c2-c2ccncc2)CCS3)cc1` gave a residual activity (SGK2 (human)) of 105%, a residual activity (ABL1 (human)) of 102% and a residual activity (PAK4 (human)) of 99.1%. The residual activity (PAK7 (human)) was 97.6%, the residual activity (DAPK3 (human)) was 100% and the residual activity (MET (human)) was 92.7%. It also gave a residual activity (CAMK2D (human)) of 97.1%, a residual activity (PRKX (human)) of 97.6% and a residual activity (DYRK1A (human)) of 97.5%. The residual activity (CDK9 CCNK (human)) was 101%, the residual activity (CSNK1A1 (human)) was 58.8% and the residual activity (STK33 (human)) was 96.5%. For the same compound, the residual activity (GRK5 (human)) was 103%, the residual activity (SLK (human)) was 110% and the residual activity (ACVR1B (human)) was 115%. The residual activity (PRKD3 (human)) was 88.2%, the residual activity (PHKG1 (human)) was 94.6% and the residual activity (CDK5 CDK5R1 p35 (human)) was 97.8%. For the same compound, the residual activity (JAK2 JH1 JH2 (human)) was 93.6%, the residual activity (FLT1 (human)) was 84.1% and the residual activity (PRKCD (human)) was 99.1%. For the same compound, the residual activity (PKN2 (human)) was 96.3%, the residual activity (DCLK2 (human)) was 97.4% and the residual activity (PRKCE (human)) was 97.7%. It also gave a residual activity (CSNK2A1 (human)) of 106%, a residual activity (RPS6KB1 (human)) of 108% and a residual activity (ULK2 (human)) of 106%. The residual activity (CLK2 (human)) was 105%, the residual activity (HIPK3 (human)) was 109% and the residual activity (STK11 (human)) was 93.8%. For the same compound, the residual activity (CSNK1E (human)) was 20%, the residual activity (STK17A (human)) was 99.4% and the residual activity (FER (human)) was 86.4%. It also gave a residual activity (IKBKE (human)) of 101%, a residual activity (DSTYK (human)) of 105% and a residual activity (MAPK8 (human)) of 99%. It also gave a residual activity (CDK4 CCND3 (human)) of 94.9%, a residual activity (AKT3 (human)) of 109% and a residual activity (MAP3K14 (human)) of 103%. For the same compound, the residual activity (IKBKB (human)) was 105%, the residual activity (PKN1 (human)) was 101% and the residual activity (PRKD1 (human)) was 90.2%.
`O=C1c2ccccc2-c2nc3nnnn3nc21` gave a residual activity (SGK2 (human)) of 75.1%, a residual activity (ABL1 (human)) of 89.7% and a residual activity (PAK4 (human)) of 91.4%. It also gave a residual activity (PAK7 (human)) of 93.4%, a residual activity (DAPK3 (human)) of 96.2% and a residual activity (MET (human)) of 83.3%. The residual activity (CAMK2D (human)) was 93%, the residual activity (PRKX (human)) was 94.3% and the residual activity (DYRK1A (human)) was 95%. The residual activity (CDK9 CCNK (human)) was 74.4%, the residual activity (CSNK1A1 (human)) was 85.8% and the residual activity (STK33 (human)) was 107%. For the same compound, the residual activity (GRK5 (human)) was 74.3%, the residual activity (SLK (human)) was 92.4% and the residual activity (ACVR1B (human)) was 113%. For the same compound, the residual activity (PRKD3 (human)) was 83.4%, the residual activity (PHKG1 (human)) was 92.5% and the residual activity (CDK5 CDK5R1 p35 (human)) was 79.1%. The residual activity (JAK2 JH1 JH2 (human)) was 82.6%, the residual activity (FLT1 (human)) was 3.06% and the residual activity (PRKCD (human)) was 102%. It also gave a residual activity (PKN2 (human)) of 77.1%, a residual activity (DCLK2 (human)) of 86.5% and a residual activity (PRKCE (human)) of 99%. For the same compound, the residual activity (CSNK2A1 (human)) was 101%, the residual activity (RPS6KB1 (human)) was 85.8% and the residual activity (ULK2 (human)) was 105%. It also gave a residual activity (CLK2 (human)) of 92.1%, a residual activity (HIPK3 (human)) of 101% and a residual activity (STK11 (human)) of 99.1%. For the same compound, the residual activity (CSNK1E (human)) was 80.6%, the residual activity (STK17A (human)) was 83.8% and the residual activity (FER (human)) was 89.1%. The residual activity (IKBKE (human)) was 89.2%, the residual activity (DSTYK (human)) was 81.5% and the residual activity (MAPK8 (human)) was 78.3%. For the same compound, the residual activity (CDK4 CCND3 (human)) was 68.1%, the residual activity (AKT3 (human)) was 81.2% and the residual activity (MAP3K14 (human)) was 124%. For the same compound, the residual activity (IKBKB (human)) was 73.4%, the residual activity (PKN1 (human)) was 97.5% and the residual activity (PRKD1 (human)) was 86.5%.
Work on `COc1ccc(S(=O)(=O)N(CCO)c2ccccc2CN(C)C/C=C/c2ccc(Cl)cc2)cc1` yielded a residual activity (SGK2 (human)) of 99.8%, a residual activity (ABL1 (human)) of 100% and a residual activity (PAK4 (human)) of 101%. For the same compound, the residual activity (PAK7 (human)) was 107%, the residual activity (DAPK3 (human)) was 101% and the residual activity (MET (human)) was 98.2%. It also gave a residual activity (CAMK2D (human)) of 91.8%, a residual activity (PRKX (human)) of 104% and a residual activity (DYRK1A (human)) of 102%. It also gave a residual activity (CDK9 CCNK (human)) of 99.1%, a residual activity (CSNK1A1 (human)) of 99.3% and a residual activity (STK33 (human)) of 97.3%. For the same compound, the residual activity (GRK5 (human)) was 94.1%, the residual activity (SLK (human)) was 103% and the residual activity (ACVR1B (human)) was 93.2%. The residual activity (PRKD3 (human)) was 97.1%, the residual activity (PHKG1 (human)) was 95.4% and the residual activity (CDK5 CDK5R1 p35 (human)) was 99.9%. The residual activity (JAK2 JH1 JH2 (human)) was 98.4%, the residual activity (FLT1 (human)) was 94.7% and the residual activity (PRKCD (human)) was 94.3%. The residual activity (PKN2 (human)) was 101%, the residual activity (DCLK2 (human)) was 99.1% and the residual activity (PRKCE (human)) was 97.2%. For the same compound, the residual activity (CSNK2A1 (human)) was 99.5%, the residual activity (RPS6KB1 (human)) was 103% and the residual activity (ULK2 (human)) was 102%. The residual activity (CLK2 (human)) was 96.7%, the residual activity (HIPK3 (human)) was 104% and the residual activity (STK11 (human)) was 97.7%. The residual activity (CSNK1E (human)) was 105%, the residual activity (STK17A (human)) was 102% and the residual activity (FER (human)) was 97.1%. It also gave a residual activity (IKBKE (human)) of 93.7%, a residual activity (DSTYK (human)) of 93.5% and a residual activity (MAPK8 (human)) of 104%. The residual activity (CDK4 CCND3 (human)) was 94.1%, the residual activity (AKT3 (human)) was 105% and the residual activity (MAP3K14 (human)) was 90.8%. It also gave a residual activity (IKBKB (human)) of 98.1%, a residual activity (PKN1 (human)) of 110% and a residual activity (PRKD1 (human)) of 100%.
